Data on one compound can be found in patent US20190365675A1, “COMPOSITIONS FOR THE PREVENTION AND/OR TREATMENT OF ALCOHOL USE DISORDERS” (SERVICIO ANDALUZ DE SALUD, priority 2016, published 2019).

Molecules are shown by their SMILES.

In one assay the test system is TLR4. Description: TLR4 mRNA and protein expression in frontal cortex after ethanol intoxication. In kind it is in vivo, Wistar rats. To be noted: 2-4 h after last ethanol, OEA pre-treatment. The method, then:
The animals were treated with intragastric (i.g.) ethanol 3 times a day using an i.g. cannula (16G needle, Fisher Scientific, Waltham, Mass., USA), following a protocol based on a slightly modified standard 4-day alcohol intoxication pattern (Bernier et al., 2002a, b) (FIG. 1A). The ethanol doses were administered every 8 h for a total time of 4 days. The rats treated with ethanol received an initial loading dose of 5 g/kg of ethanol in a 30% solution (w/v) and then a maximum maintenance dose of 3 g/kg, which were determined based on blood ethanol levels (BEL). This repeated standard alcohol intoxication paradigm kept BEL intoxication relatively constant in a range of sedation/ataxia (190 to 430 mg/dl, Table 3), according to the 6-point alcohol intoxication behavior scale (Majchrowicz, 1975). The mean dose of ethanol/rat/day (days 1-4) was 7.06 g/kg, similar to other studies (Obernier et al., 2002a, b). […] The autoradiograph was quantified by densitometry (NIH ImageJ® software, National Biosciences, Lincoln, Nebr. USA) and expressed as optical density (OD). […] The quantitative changes in mRNA levels were estimated by means of RT-PCR, carried out in the presence of the SYBR green primer using a 20-L reaction in a Rotor-Gene (Corbett Research®, Mortlake, NSW, Australia). […]

The next assay concerns IL-1β. Nature of the assay: IL-1β mRNA and protein (ELISA) in frontal cortex and plasma after ethanol intoxication. As to conditions: OEA pre-treatment. In kind it is in vivo, Wistar rats. Here is the method:
The animals were treated with intragastric (i.g.) ethanol 3 times a day using an i.g. cannula (16G needle, Fisher Scientific, Waltham, Mass., USA), following a protocol based on a slightly modified standard 4-day alcohol intoxication pattern (Bernier et al., 2002a, b) (FIG. 1A). The ethanol doses were administered every 8 h for a total time of 4 days. The rats treated with ethanol received an initial loading dose of 5 g/kg of ethanol in a 30% solution (w/v) and then a maximum maintenance dose of 3 g/kg, which were determined based on blood ethanol levels (BEL). This repeated standard alcohol intoxication paradigm kept BEL intoxication relatively constant in a range of sedation/ataxia (190 to 430 mg/dl, Table 3), according to the 6-point alcohol intoxication behavior scale (Majchrowicz, 1975). The mean dose of ethanol/rat/day (days 1-4) was 7.06 g/kg, similar to other studies (Obernier et al., 2002a, b). OEA (5 mg/kg, i.p., except initial dose of 10 mg/kg i.p.; synthesized as described in Giuffrida et al., 2000) was dissolved in the vehicle (5% Tween-80 in saline solution) and injected 10 minutes before each of the administrations of ethanol by an intragastric gavage. The anti-inflammatory activity of OEA at 10 mg/kg per intraperitoneal route in the frontal cortex before the injection of LPS (Sayd et al., 2014) was previously referred to. In this study, OEA is repeatedly injected as a pre-treatment before each administration of ethanol. […] The quantitative changes in mRNA levels were estimated by means of RT-PCR, carried out in the presence of the SYBR green primer using a 20-L reaction in a Rotor-Gene (Corbett Research®, Mortlake, NSW, Australia). […] The levels of soluble HMGB1, TNF-α, IL-1β and MCP-1 were determined by means of a commercially available enzyme-linked immunosorbent assay kit (ELISA) (Elabscience Biotechnology Co., Ltd., China, for HMGB-1; RayBiotech®, GA, USA, for TNF-α, IL-1β, and MCP-1). The nuclear/cytosol HMGB1 fraction was determined by means of Western blot analysis.
(In general: An ELISA detects its analyte on a solid surface through an enzyme-linked reagent.)

As to `CCCCCCCC/C=C\CCCCCCCC(=O)NCCO` [OEA, oleoylethanolamide], in the assay on TLR4, the “Ethanol-induced TLR4 protein expression” value is given as “reduce” and the “Ethanol-induced overexpression of TLR-4 mRNA” value is on record as “reduce”. The “Ethanol-induced increase in IL-1β protein levels” value in the assay with IL-1β (frontal cortex, ELISA) was “prevented”. In addition, the “Ethanol-induced increase in IL-1β mRNA” value in the assay with IL-1β (frontal cortex) is “did not prevent”. Besides, the “Ethanol-induced increase in IL-1β plasma levels” value in the assay with IL-1β (plasma, ELISA) was “prevented”.
